Source: US5298511A, “Alkanoic acid derivatives” (Imperial Chemical Industries PLC, priority 1991, dated 1994)

Biological target: T1, 5-LO (Homo sapiens, UniProt P09917)
T1 construct: incubating a test compound with heparinised human blood, prior to challenge with the calcium ionophore A23187; endogenous in cells; host or cells: blood cells in heparinised human whole blood, challenged with A23187
T1 sequence (P09917 1-674): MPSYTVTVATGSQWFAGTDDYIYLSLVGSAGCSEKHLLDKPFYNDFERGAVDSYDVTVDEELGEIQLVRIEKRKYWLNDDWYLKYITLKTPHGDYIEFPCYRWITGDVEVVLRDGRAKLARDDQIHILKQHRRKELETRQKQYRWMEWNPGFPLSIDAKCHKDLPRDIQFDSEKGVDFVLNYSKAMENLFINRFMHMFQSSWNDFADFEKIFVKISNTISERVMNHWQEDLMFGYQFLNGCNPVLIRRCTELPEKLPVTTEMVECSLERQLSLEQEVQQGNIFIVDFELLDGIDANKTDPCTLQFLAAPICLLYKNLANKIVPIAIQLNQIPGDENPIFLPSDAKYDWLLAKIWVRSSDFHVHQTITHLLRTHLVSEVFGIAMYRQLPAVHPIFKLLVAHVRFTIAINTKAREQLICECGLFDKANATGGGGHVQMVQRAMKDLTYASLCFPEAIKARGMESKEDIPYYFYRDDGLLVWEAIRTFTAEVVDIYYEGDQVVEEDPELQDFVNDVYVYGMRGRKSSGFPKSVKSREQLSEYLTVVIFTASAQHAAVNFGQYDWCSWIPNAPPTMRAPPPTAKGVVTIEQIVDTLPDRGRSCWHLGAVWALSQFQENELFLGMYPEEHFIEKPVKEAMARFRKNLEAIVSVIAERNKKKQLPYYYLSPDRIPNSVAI
Test: test a) in vitro heparinised human blood challenged with calcium ionophore A23187; LTB4 by radioimmunoassay
Type: cell-based
Description: a) An in vitro assay system involving incubating a test compound with heparinised human blood, prior to challenge with the calcium ionophore A23187 and then indirectly measuring the inhibitory effects on 5-LO by assaying the amount of LTB4 using specific radioimmunoassays described by Carey and Forder (F. Carey and R. A. Forder, Prostaglandins, Leukotrienes Med., 1986, 22, 57; Prostaglandins, 1984, 28, 666; Brit. J. Pharmacol. 1985, 84, 34 P) which involve the use of a protein-LTB4 conjugate produced using the procedure of Young et alia (Prostaglandins, 1983, 26(4), 605-613). The effects of a test compound on the enzyme cyclooxygenase (which is involved in the alternative metabolic pathway for arachidonic acid and gives rise to prostaglandins, thromboxanes and related metabolites) may be measured at the same time using the specific radioimmunoassay for thromboxane B2 (TxB2) described by Carey and Forder (see above). This test provides an indication of the effects of a test compound against 5-LO and also cyclooxygenase in the presence of blood cells and proteins. It permits the selectivity of the inhibitory effect on 5-LO or cyclooxygenase to be assessed.

`CCOC(=O)C(CC)(CC)c1cccc(OCc2ccc3ccccc3c2)c1` [Example 1, ethyl 2-ethyl-2-[3-(naphth-2-ylmethoxy)phenyl]butyrate] was tested, and the IC50 was 200 nM.
